Measurements as given in BigSolDB 2.1.

CNC(=O)c1cc(Oc2ccc(NC(=O)Nc3ccc(Cl)c(C(F)(F)F)c3)cc2)ccn1
solubility (mole fraction)
Conditions | 283.15 K | 293.15 K | 303.15 K | 313.15 K | 323.15 K | 333.15 K
in isobutanol | 0.000253 | 0.000379 | 0.000715 | 0.00104 | 0.00155 | 0.00216
in isopropanol | 0.000509 | 0.000638 | 0.00104 | 0.00152 | 0.00226 | 0.00325
in n-butanol | 0.000645 | 0.000816 | 0.0013 | 0.00193 | 0.00288 | 0.00417
in n-pentanol | 0.000599 | 0.000819 | 0.00122 | 0.00173 | 0.00256 | 0.00377
in n-propanol | 0.000678 | 0.000888 | 0.00137 | 0.00204 | 0.00313 | 0.00456

CNC(=O)c1cc(Oc2ccc(NC(=O)Nc3ccc(Cl)c(C(F)(F)F)c3)cc2)ccn1.Cc1ccc(S(=O)(=O)O)cc1
solubility (mole fraction)
Conditions | 283.15 K | 293.15 K | 303.15 K | 313.15 K | 323.15 K | 333.15 K
in isobutanol | 6.18e-05 | 9.67e-05 | 0.000149 | 0.000216 | 0.000284 | 0.000423
in isopropanol | 7.81e-05 | 0.000109 | 0.00016 | 0.000229 | 0.000311 | 0.000442
in n-butanol | 0.000132 | 0.000163 | 0.000238 | 0.000316 | 0.000419 | 0.000541
in n-pentanol | 5.78e-05 | 8.76e-05 | 0.000148 | 0.000209 | 0.000272 | 0.000394
in n-propanol | 0.000139 | 0.000175 | 0.000258 | 0.000344 | 0.000456 | 0.000622
